Results as given in patent publication US11747321B2, “Apparatuses for cell mapping via impedance measurements and methods to operate the same” (President and Fellows of Harvard College, priority 2020, dated 2023).

Assays:
MDCK cells [1] = tested on: MDCK cells
Excerpt: Ethylenediaminetetraacetic acid (EDTA) is applied to the cells. EDTA is a calcium chelator that removes Ca^2+ needed for integrin proteins to maintain cell adhesion.
FIG. 6b is a data plot showing mean normalized impedances for different regions of the cell culture over time as specified in the map 601. FIG. 6cc are histograms of the normalized impedance values before, during, and after a washout of EDTA across the array.

MDCK cells [2] = experiment: Wound healing assay: electrochemically patterned wound, regrowth measured by impedance mapping; assay type: cell-based, Canine; conditions: 1 μM, over 72 hours, control culture shows regrowth
Excerpt: This example describes a combined application of both the cross-electrode impedance mapping and cell patterning is a wound healing assay.
These assays gauge cell growth rate and metabolism and can be useful for screening drugs affecting these parameters. Compared to the electrochemical patterning described herein, other tools mechanically generate a wound in a cell culture via a mechanical scratch which is both difficult to control and limiting in terms of wound pattern.
In this example, a wound is made in MDCK cells and then the growth is mapped in real-time. […] These patterns were defined by applying electrode currents of −10 nA for 40 s versus a Ag/AgCl pseudo reference electrode. The regrowth of the culture was then measured using the impedance mapping method.

SMILES | time course of cell detachment with EDTA applied (MDCK cells [1]; 5 mM EDTA application, normalized impedance maps) [min] | time course of cell re-attachment after EDTA washout (MDCK cells [1]; EDTA washed out by adding normal culture media) [min] | regrowth of wounded cell culture (normalized cross-electrode impedance maps) (MDCK cells [2])
O=C(O)CN(CCN(CC(=O)O)CC(=O)O)CC(=O)O [EDTA, Ethylenediaminetetraacetic acid] | ~50 | ~200 | 
C=C1[C@@H](C)[C@H]2[C@H](Cc3ccccc3)NC(=O)[C@]23OC(=O)/C=C/[C@H](O)CCC[C@@H](C)C/C=C/[C@H]3[C@@H]1O [cytochalasin B] |  |  | very little growth
